22 compounds from ChEMBL document CHEMBL1138337, “Bis-azaaromatic quaternary ammonium salts as antagonists at nicotinic receptors mediating nicotine-evoked dopamine release: An investigation of binding conformation” (2007) can be followed below.

Structures are written as SMILES.

The target in test [1] is Neuronal acetylcholine receptor subunit alpha-7 (Rattus norvegicus) (UniProt Q05941). The experiment in a line: Displacement of [3H]MLA from alpha-7 nAChR expressed in rat brain membrane at 100 nM.
Chain of Neuronal acetylcholine receptor subunit alpha-7 (Rattus norvegicus) (Q05941 whole entry): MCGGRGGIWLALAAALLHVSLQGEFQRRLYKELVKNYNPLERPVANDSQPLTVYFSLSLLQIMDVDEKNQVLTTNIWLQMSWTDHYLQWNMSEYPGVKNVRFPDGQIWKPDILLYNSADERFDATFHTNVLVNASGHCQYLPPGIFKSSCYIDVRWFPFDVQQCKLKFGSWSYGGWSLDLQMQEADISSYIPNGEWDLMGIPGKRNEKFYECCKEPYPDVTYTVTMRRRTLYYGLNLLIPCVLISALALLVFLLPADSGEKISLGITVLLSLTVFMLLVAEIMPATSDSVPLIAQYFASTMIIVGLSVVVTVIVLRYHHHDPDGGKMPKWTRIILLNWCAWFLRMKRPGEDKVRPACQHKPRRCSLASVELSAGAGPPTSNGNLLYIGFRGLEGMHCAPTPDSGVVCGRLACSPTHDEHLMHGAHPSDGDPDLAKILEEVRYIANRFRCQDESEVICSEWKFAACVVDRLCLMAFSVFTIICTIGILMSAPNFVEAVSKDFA
The target of test [2] is Neuronal acetylcholine receptor; alpha4/beta2 (Rattus norvegicus) (UniProt P09483+P12390). The experiment in a line: Displacement of [3H]NIC from alpha-4-beta-2 nAChR expressed in rat brain membrane at 100 nM.

Take `CN1CCC[C@H]1c1ccc[n+](CCCCc2ccc(CCCC[n+]3cccc([C@@H]4CCCN4C)c3)cc2)c1`: the inhibition was 5.3% in test [1] and 3.66% in test [2].
On the same counts, the results for `CN1CCC[C@H]1c1ccc[n+](CCCC#Cc2ccccc2C#CCCC[n+]2cccc([C@@H]3CCCN3C)c2)c1` are 9.2% and 72%.
For the compound `Cc1ccc[n+](CCCCc2ccc(CCCC[n+]3cccc(C)c3)cc2)c1`, the inhibition in test [1] is 7.41%; in test [2], 4.33%.
Take `Cc1cccc[n+]1CCCC#Cc1cccc(C#CCCC[n+]2ccccc2C)c1`: the inhibition was 0% in test [1] and 1.9% in test [2].
On the same counts, the results for `Cc1cccc[n+]1CCCCc1ccc(CCCC[n+]2ccccc2C)cc1` are 0.16% and 6.3%.
On the same counts, the results for `Cc1cc[n+](CCCCCc2ccccc2CCCCC[n+]2ccc(C)cc2)cc1` are 3.1% and 0%.
The like results for `Cc1cc[n+](CCCCCc2cccc(CCCCC[n+]3ccc(C)cc3)c2)cc1` were, in that order, 3.5% and 4.6%.
Turning to `Cc1cccc[n+]1CCCCCc1cccc(CCCCC[n+]2ccccc2C)c1`, the inhibition in test [1] amounted to 0%; in test [2], 7.2%.
The like results for `Cc1ccc[n+](CCC#Cc2ccc(C#CCC[n+]3cccc(C)c3)cc2)c1` were, in that order, 3.1% and 13%.
On the same counts, the results for `Cc1cc[n+](CCCCc2ccc(CCCC[n+]3ccc(C)cc3)cc2)cc1` are 7.73% and 1.1%.
On the same counts, the results for `Cc1cc[n+](CCCC#Cc2ccccc2C#CCCC[n+]2ccc(C)cc2)cc1` are 5.4% and 2.5%.
Regarding `CN1CCC[C@H]1c1ccc[n+](CCCCCc2ccccc2CCCCC[n+]2cccc([C@@H]3CCCN3C)c2)c1`, the inhibition in test [1] was found to be 11%; in test [2] it was 71%.
On to `Cc1ccc[n+](CCCC#Cc2cccc(C#CCCC[n+]3cccc(C)c3)c2)c1`, for which the inhibition in test [1] is 8%; in test [2], 0.5%.
On the same counts, the results for `CN1CCC[C@H]1c1ccc[n+](CCCC#Cc2cccc(C#CCCC[n+]3cccc([C@@H]4CCCN4C)c3)c2)c1` are 2.6% and 3.1%.
The like results for `Cc1cc[n+](CCCC#Cc2cccc(C#CCCC[n+]3ccc(C)cc3)c2)cc1` were, in that order, 6.4% and 10%.
The like results for `Cc1cccc[n+]1CCCC#Cc1ccccc1C#CCCC[n+]1ccccc1C` were, in that order, 1.2% and 2.1%.
As for `Cc1ccc[n+](CCCCCc2cccc(CCCCC[n+]3cccc(C)c3)c2)c1`, the results for the inhibition in test [1] and in test [2] were 6.24% and 3.5%, respectively.
As for `Cc1ccc[n+](CCCCCc2ccccc2CCCCC[n+]2cccc(C)c2)c1`, the inhibition in test [1] was determined as 5.4%; in test [2], 0%.
On the same counts, the results for `Cc1cccc[n+]1CCCCCc1ccccc1CCCCC[n+]1ccccc1C` are 7.6% and 0%.
For the compound `Cc1ccc[n+](CCCCCCCCCCCC[n+]2cccc(C)c2)c1`, the inhibition in test [1] and in test [2] was 0% throughout.
In the case of `Cc1cc[n+](CCC#Cc2ccc(C#CCC[n+]3ccc(C)cc3)cc2)cc1`, the inhibition in test [1] was determined as 2.7%; in test [2], 8.9%.
Consider `Cc1ccc[n+](CCCC#Cc2ccccc2C#CCCC[n+]2cccc(C)c2)c1`, for which the inhibition in test [1] is 0%; in test [2], 3.9%.
